According to patent publication US11007273B2, “Prochelators as targeted prodrugs for prostate cancer and methods of making and using same” (Duke University, priority 2017, dated 2021):

Target: GGT (Homo sapiens, UniProt P19440)
Test: GGT enzyme cleavage assay (LC/MS)
Type: biochemical
Conditions: 100 μM, 100 U/L GGT, 15 min, then 500 μM CuSO4
Description: GGT Enzyme cleavage assay: In order to detect DTC liberated from prodrug by reactivity with GGT, 100 μM Glu-DTC was exposed to 100 U/L GGT in the presence of 1 mM Gly-Gly (PBS; pH 7.4; 37° C.). After 15 min, 500 μM CuSO4 was added to the vial, mixed well, then analyzed by LC/MS using an H2O: acetonitrile gradient for 25 min starting with 95% H2O:acetonitrile to 5% H2O:acetonitrile. A peak eluting at 12 min was observed corresponding to Glu-DTC as detected by MS, while a second peak eluting at 22 min corresponded to Cu(DTC)2 as detected by MS.

Chain of GGT (P19440 whole entry, species assumed): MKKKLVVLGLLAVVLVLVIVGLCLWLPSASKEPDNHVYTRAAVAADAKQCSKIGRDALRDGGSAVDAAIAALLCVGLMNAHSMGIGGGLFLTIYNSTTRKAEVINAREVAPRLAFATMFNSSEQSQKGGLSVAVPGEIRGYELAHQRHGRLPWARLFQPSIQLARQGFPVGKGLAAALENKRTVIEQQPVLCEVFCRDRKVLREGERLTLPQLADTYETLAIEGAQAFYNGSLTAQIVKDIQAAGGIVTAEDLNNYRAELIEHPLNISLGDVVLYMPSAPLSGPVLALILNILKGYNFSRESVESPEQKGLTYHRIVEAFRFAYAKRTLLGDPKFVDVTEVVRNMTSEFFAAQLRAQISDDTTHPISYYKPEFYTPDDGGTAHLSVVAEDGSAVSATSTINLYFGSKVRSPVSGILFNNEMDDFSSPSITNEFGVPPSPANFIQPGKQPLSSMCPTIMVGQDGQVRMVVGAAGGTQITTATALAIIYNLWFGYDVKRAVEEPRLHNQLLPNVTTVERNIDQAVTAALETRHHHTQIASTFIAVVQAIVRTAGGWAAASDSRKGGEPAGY

Compound: CCN(CC)C(=S)SCc1ccc(NC(=O)CC[C@H](N)C(=O)O)cc1 [Glu-DTC]
- prodrug cleavage and Cu(DTC)2 formation by LC/MS: decrease in Glu-DTC peak and formation of Cu(DTC)2
